Measured values reported in PMC7590683, “Xanthine oxidase inhibitory activity of a new isocoumarin obtained from Marantodes pumilum var. pumila leaves” (BMC Complementary Medicine and Therapies, 2020).
Like-named read-outs stand apart in the source and are kept apart here.

Experiments:
xanthine oxidase [1] = test system: xanthine oxidase; parameters: method as in PMID 18201686; conditions: cited from earlier work
xanthine oxidase [2] = test system: xanthine oxidase; parameters: method as in PMID 30189275; conditions: better than allopurinol; cited from earlier work
xanthine oxidase [3] = molecular target: T1, xanthine oxidase (Bos taurus, UniProt P80457); test: In vitro xanthine oxidase inhibitory assay; type: biochemical, cow; conditions: for inhibition at 6.25 µg/mL: 6.25 μg/mL; for inhibition at 12.5 µg/mL: 12.5 μg/mL; for inhibition at 25 µg/mL: 25 μg/mL; for inhibition at 50 µg/mL: 50 μg/mL; for IC50: mean ± S.E.M., n = 3, read-out: IC50 value of xanthine oxidase inhibition (converted)
T1 construct: xanthine oxidase (cow’s milk) were purchased from Sigma-Aldrich Chemicals; purchased Sigma-Aldrich Chemicals (St. Louis, MO, USA); host or cells: cow's milk (natural source)
T1 sequence (P80457 whole entry): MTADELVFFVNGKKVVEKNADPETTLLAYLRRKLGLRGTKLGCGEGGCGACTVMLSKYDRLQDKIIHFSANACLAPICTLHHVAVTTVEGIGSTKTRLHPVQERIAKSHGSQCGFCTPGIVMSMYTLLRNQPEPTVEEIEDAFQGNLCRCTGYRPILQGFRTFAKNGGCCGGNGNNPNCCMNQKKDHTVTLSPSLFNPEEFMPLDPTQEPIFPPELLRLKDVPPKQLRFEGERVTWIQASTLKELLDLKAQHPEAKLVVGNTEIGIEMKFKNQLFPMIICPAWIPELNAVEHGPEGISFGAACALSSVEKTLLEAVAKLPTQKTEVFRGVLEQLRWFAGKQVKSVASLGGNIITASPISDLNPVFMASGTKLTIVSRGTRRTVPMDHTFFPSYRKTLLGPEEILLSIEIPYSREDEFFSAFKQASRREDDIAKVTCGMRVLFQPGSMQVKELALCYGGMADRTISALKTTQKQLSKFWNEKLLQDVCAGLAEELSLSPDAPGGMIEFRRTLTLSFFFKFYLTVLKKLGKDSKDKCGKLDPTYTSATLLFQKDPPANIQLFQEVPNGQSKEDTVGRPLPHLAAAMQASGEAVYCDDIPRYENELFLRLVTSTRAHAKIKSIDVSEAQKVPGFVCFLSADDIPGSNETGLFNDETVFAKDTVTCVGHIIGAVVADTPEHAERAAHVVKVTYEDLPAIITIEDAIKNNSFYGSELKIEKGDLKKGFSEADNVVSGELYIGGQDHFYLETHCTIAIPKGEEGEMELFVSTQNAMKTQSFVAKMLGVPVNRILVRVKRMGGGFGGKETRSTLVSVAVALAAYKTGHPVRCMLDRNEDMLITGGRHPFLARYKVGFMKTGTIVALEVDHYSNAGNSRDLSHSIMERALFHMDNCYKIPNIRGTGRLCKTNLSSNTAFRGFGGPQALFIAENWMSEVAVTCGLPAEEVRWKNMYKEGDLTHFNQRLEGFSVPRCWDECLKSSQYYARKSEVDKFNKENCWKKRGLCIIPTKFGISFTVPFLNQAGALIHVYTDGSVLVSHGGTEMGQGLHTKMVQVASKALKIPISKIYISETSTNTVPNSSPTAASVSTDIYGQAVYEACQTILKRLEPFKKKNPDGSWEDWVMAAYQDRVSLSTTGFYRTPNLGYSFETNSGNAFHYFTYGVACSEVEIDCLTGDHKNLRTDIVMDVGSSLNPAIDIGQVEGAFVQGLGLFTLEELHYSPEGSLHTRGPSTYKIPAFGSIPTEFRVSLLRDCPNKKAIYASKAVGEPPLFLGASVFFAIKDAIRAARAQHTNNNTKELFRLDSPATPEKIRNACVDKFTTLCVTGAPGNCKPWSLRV
Description: The xanthine oxidase inhibitory assay was carried out using a previously reported method with slight modifications. […] This was followed by dilution with potassium phosphate buffer (0.05 M, pH 7.5) to achieve the desired concentrations. Each test solution contained 0.5% DMSO. The assay was performed in triplicates in a 96-well microplate. […] Then, 100 μL of substrate solution, xanthine (0.15 mM, pH 7.5), was added before further incubating at 25 °C for 10 min. The final assay mixture was spectrophotometrically measured at 295 nm. Xanthine oxidase inhibitory activity was expressed as the percentage of xanthine oxidase inhibition and calculated using the following formula: %Xanthine Oxidase Inhibition=A−B−C−D/A−B×100

xanthine oxidase [4] = test system: xanthine oxidase; parameters: method as in PMID 8572586; conditions: cited from earlier work
[5] = read-out: Percentage of xanthine oxidase inhibition
[6] = 100 μg/mL, read-out: Percentage of xanthine oxidase inhibition

O=c1cc(O)c2ccccc2o1 [4-hydroxycoumarin]
mode of inhibition against xanthine oxidase (xanthine oxidase [1]): competitive inhibition

O=c1oc2cc(O)cc(O)c2cc1-c1cccc(O)c1 [5,7-dihydroxy-3-(3-hydroxyphenyl) coumarin]
xanthine oxidase inhibitory activity relative to allopurinol (xanthine oxidase [2]): 7 fold

Cc1cc(=O)oc2cc(O)c(O)cc12 [7-hydroxy-4-methylesculetin]
mode of inhibition against xanthine oxidase (xanthine oxidase [1]): competitive inhibition

O=c1ccc2ccc(O)cc2o1 [7-hydroxycoumarin]
mode of inhibition against xanthine oxidase (xanthine oxidase [1]): competitive inhibition

Oc1ncnc2[nH]ncc12 [Allopurinol, allopurinol, reference compound]
inhibition at 0.0064 µg/mL (xanthine oxidase [3]; [5]): 4.12%
inhibition at 0.032 µg/mL (xanthine oxidase [3]; [5]): 17.8%
inhibition at 0.16 µg/mL (xanthine oxidase [3]; [5]): 29.5%
inhibition at 0.8 µg/mL (xanthine oxidase [3]; [5]): 93.7%
inhibition at 4 µg/mL (xanthine oxidase [3]; [5]): 98.9%
inhibition at 20 µg/mL (xanthine oxidase [3]; [5]): 99%
inhibition at 100 µg/mL (xanthine oxidase [3]; [5]): 99.8%

COc1cc(O)c(C)c2c(=O)oc(O)c(C)c12 [Compound 1, 3,7-dihydroxy-5-methoxy-4,8-dimethyl-isocoumarin]
inhibition at 0.39 µg/mL (xanthine oxidase [3]; 0.39 μg/mL, read-out: Percentage of xanthine oxidase inhibition): 39.6 ± 0.68%
inhibition at 0.78 µg/mL (xanthine oxidase [3]; 0.78 μg/mL, read-out: Percentage of xanthine oxidase inhibition): 54.14 ± 0.34%
inhibition at 1.56 µg/mL (xanthine oxidase [3]; 1.56 μg/mL, read-out: Percentage of xanthine oxidase inhibition): 66.49 ± 0.05%
inhibition at 3.13 µg/mL (xanthine oxidase [3]; 3.13 μg/mL, read-out: Percentage of xanthine oxidase inhibition): 76.17 ± 0.52%
inhibition at 6.25 µg/mL (xanthine oxidase [3]; [5]): 86.02 ± 0.14%
inhibition at 12.5 µg/mL (xanthine oxidase [3]; [5]): 91.75 ± 0.22%
inhibition at 25 µg/mL (xanthine oxidase [3]; [5]): 95.04 ± 0.86%
inhibition at 50 µg/mL (xanthine oxidase [3]; [5]): 96.91 ± 0.06%
IC50 (xanthine oxidase [3]): 2.79 µM

COC1=CC(=O)C(O)=C(CCCCCCC/C=C\CCCCCCCC2=C(O)C(=O)C=C(OC)C2=O)C1=O [Compound 2, Ardisiaquinone A]
inhibition at 6.25 µg/mL (xanthine oxidase [3]; [5]): 9.11 ± 0.28%
inhibition at 12.5 µg/mL (xanthine oxidase [3]; [5]): 14.5 ± 0.45%
inhibition at 25 µg/mL (xanthine oxidase [3]; [5]): 36.31 ± 0.08%
inhibition at 50 µg/mL (xanthine oxidase [3]; [5]): 74.08 ± 0.5%
xanthine oxidase inhibitory activity (in words) (xanthine oxidase [3]; isolated compounds): low activity
IC50 (xanthine oxidase [3]): 59 µM

CCCC/C=C\CCCCCCCCCC1=C(O)C(=O)C=C(OC)C1=O [Compound 3, Maesanin]
inhibition at 100 µg/mL (xanthine oxidase [3]; [5]): 0%

CC[C@H](/C=C/[C@@H](C)[C@H]1CC[C@H]2[C@@H]3CC=C4C[C@@H](O)CC[C@]4(C)[C@H]3CC[C@]12C)C(C)C [Compound 4, Stigmasterol]
inhibition at 100 µg/mL (xanthine oxidase [3]; [6]): 0%

CCCCCCCCCCCCCCCCCCCCCCCC [Compound 5, Tetracosane]
inhibition at 100 µg/mL (xanthine oxidase [3]; [6]): 0%

CCCCCCCCCCCCCCCCC(=O)O [Compound 6, Margaric acid]
inhibition at 100 µg/mL (xanthine oxidase [3]; [6]): 0%

O=c1ccc2cc(O)c(O)cc2o1 [Esculetin]
xanthine oxidase inhibitory activity (in words) (xanthine oxidase [4]): strong
mode of inhibition against xanthine oxidase (xanthine oxidase [1]): competitive inhibition
relative potency among selected coumarins against xanthine oxidase (xanthine oxidase [1]): most potent inhibitor

O=c1ccc2ccccc2o1 [coumarin]
mode of inhibition against xanthine oxidase (xanthine oxidase [1]): competitive inhibition

O=C1CCc2ccccc2O1 [dihydrocoumarin]
mode of inhibition against xanthine oxidase (xanthine oxidase [1]): competitive inhibition

COc1cc2ccc(=O)oc2cc1O [scopoletin]
mode of inhibition against xanthine oxidase (xanthine oxidase [1]): competitive inhibition
